From US7635708B2, “Methods and pharmaceutical compositions for inhibiting tumor cell growth” (Dana-Farber Cancer Institute, priority 1996, dated 2009)
Like-named read-outs stand apart in the source and are kept apart here.

Experiments:
HIB1B cells [1] = experiment: Adipose cell tumors from HIB1B cells implanted in nude mice; format: in vivo; conditions: for Tumor volume (mean (SD)): 0.2% mixture with powder food
Method: HIB1B cells (2×10^6 cells/animal) were injected subcutaneously to the upper back of twenty four male nude mice (7 weeks NCR […]). Thirteen days after injection, mice were treated with troglitazone (0.2% mixture with powder food). The development of tumor volume (measured in mm^3) was determined at days 14, 19 and 26 after troglitazone treatment compared to untreated controls. Each point represents the mean±[…] (SD) from 12 mice (except the last point, where n=11) treated or untreated with troglitazone for the indicated time intervals. To evaluate changes in tumor size, mean (SD) from 11-12 cases for each group of animal were examined to ensure an 85% chance of detecting a statistically significant difference (assuming a 2-sided sample t-test). […] Points A-C and D-F represent untreated and troglitazone-treated animals, respectively. Each point represents the mean±standard deviation from 12 mice (except the last point, where n=11). Statistically significant decreases in tumor volume were detected in implanted mice treated with troglitazone compared to untreated controls. […] The tumor volume was determined after 14, 19 and 26 days of treatment. Volumes are indicated with and without outlier points in each group of animals. A comparison of the tumor volume by two-sided 2-sample t-test after 26 days of treatment indicates p=0.0019 (without outlier); p=0.037 (with outlier). To evaluate the tumor increase over time, repeated measures analysis of variance were determined, p=0.0014 without outlier; p=0.044 with outlier.

[2] = tested on: primary liposarcoma cells; experiment: Adipocyte differentiation of primary cells isolated from three human liposarcomas (LS857, LS175, LS707); format: cell-based; conditions: 7 days (pioglitazone 10 μM)
Method: (§1) BrdU labeling was performed using the labeling kit (Boehringer Mannheim) according to the manufacturers instructions.
To address this possibility, primary cells isolated from three human liposarcomas were cultured in vitro (see Materials and Methods). Primary cell strains LS857 and LS175 were derived from well differentiated tumors and LS707 was derived from a myxoid tumor (see table 2). […] A primary leiomyosarcoma cell line LM203 was cultured as a control. To confirm that these cultures consisted of malignant tumor-derived cells, cytogenetic analysis was performed.

NIH-PPARγ cells [3] = conditions: at the concentrations used (pioglitazone 5 μM, BRL49653 1 μM)
Method: 48 hr after transfection viral supernatants were collected and NIH3T3 cells were infected at 50% confluence with equal titers of recombinant virus. The supernatants were applied to the cells in DMEM containing 10% cosmic calf serum (Hyclone) and 4 μg/ml of polybrene. 24 hr after infection, cells were split and plated in DMEM containing 10% calf serum and 2 μg/ml puromycin to select infected cells. NIH-3T3 cell lines infected with empty vector or with viral expression vectors containing wild type or mutant forms of PPARγ cDNA as well as HIB1B and 3T3-F442A cell lines were cultured in DMEM containing 10% cosmic calf serum.
The same number of NIH-PPARγ, NIH-vector or HIB1B cells were cultured either in the presence (+) or absence (−) of PPARγ ligands. Cell numbers were determined at the indicated time points. The effect of ligands on cell growth is represented as percentage decrease in cell numbers in the treated plates relative to untreated control plates.

HIB1B cells [4] = experiment: BrdU incorporation, HIB1B cells; format: cell-based, mice
From the text: (§2) […]. […] […].

[5] = tested on: LM203 lieomyosarcoma cells; experiment: Lipid accumulation in primary leiomyosarcoma cell line LM203 (control); format: cell-based, human; conditions: which do not express PPARγ
NIH-vector cells [6] = experiment: BrdU incorporation, NIH-vector cells; format: cell-based
From the text: as §2

aP2 and adipsin = experiment: Northern analysis of adipocyte-specific markers in LS857 liposarcoma cells; format: cell-based, human; conditions: Northern blotting
NIH-PPARγ cells [7] = experiment: Adipocytic differentiation (percent lipid-containing cells) of NIH-PPARγ cells; format: cell-based
Method: as §1
(§3) Extent of adipocytic differentiation is indicated as the percentage of lipid-containing cells.

[8] = tested on: human liposarcoma cells (LS 857); experiment: BrdU labeling and lipid staining of LS857 liposarcoma cells after induced differentiation (growth arrest); format: cell-based
3T3-F442A preadipocytes = experiment: BrdU incorporation, 3T3-F442A preadipocytes; format: cell-based
From the text: as §2

NIH-vector cells [9] = experiment: Adipocytic differentiation (percent lipid-containing cells) of NIH-vector cells; format: cell-based; conditions: for percent lipid-containing cells: NIH-vector, confluent cells, 7 days, 1 μM pioglitazone, 50 nM LG268
Method: (§4) Primary liposarcoma cells were isolated from selected freshly harvested tumors as described previously (Fletcher, J. A. et al. (1991) NEJM 324:436-443) and references therein. Primary cells were plated at a density of at least 2×10^5 cells/ml and cultured in 60 mm dishes in RPMI containing 15% Cosmic Calf Serum (Hyclone) and 5 μ/ml insulin. […] The NIH-PPARγ and NIH-vector cells were derived by retroviral infection as described (Tontonoz, P. et al., (1994) supra). Differentiated cells were stained for neutral lipid with Oil Red-O (Green, H. and Kehinde, O. (1974) Cell 1:113-116). BrdU labeling was performed using the labeling kit (Boehringer Mannheim) according to the manufacturers instructions.
We hypothesized that simultaneous exposure of competent cells to both PPARγ and R×R-specific ligands might provide a stronger adipogenic signal than a PPARγ ligand alone. The ability of the R×R-specific ligand LG268 to promote adipocyte differentiation was investigated using NIH-3T3 fibroblasts that express PPARγ from a retroviral vector (Tontonoz, P. et al. (1994) supra). We have previously shown that wild-type NIH-3T3 cells express R×Rα but not PPARγ. […] Similar results were obtained with the preadipocyte cell lines 3T3-L1 and 3T3-F442A which express both PPARγ and R×Rα (data not shown).
as §3

LS175 cells = experiment: Adipocyte differentiation of primary liposarcoma cells LS175; format: cell-based, human; conditions: 10 μM, 7 days
LS857 cells = experiment: Adipocyte differentiation of primary liposarcoma cells LS857; format: cell-based, human
Method: as §4
Liposarcomas have presumably acquired one or more genetic defects that interferes with the course of normal adipocyte development (Crozat, A. et al., (1993) Nature 363:640-644; Fletcher, J. A. et al., (1991) supra). […]
When cultured in the presence of fetal bovine serum and insulin, conditions permissive for adipocyte differentiation, all three cell lines maintain a fibroblastic morphology. […] This experiment was performed at least twice with each cell strain with quantitatively and qualitatively similar results. […]

NIH-PPARγ cells [10] = tested on: NIH-PPARγ cells
Method: BrdU incorporation experiment was performed as described in the protocol provided by the supplier (Boehringer Mannheim Biochemical). Briefly, cells grown on coverslips were labeled with 10 μM BrdU for 1 hr. Samples were washed and fixed with ethanol-glycine buffer and incubated with anti-BrdU monoclonal antibody. After incubation with anti-mouse-Ig-alkaline phosphatase followed by the substrate reaction, bound anti-BrdU antibody was visualized by light microscopy.
Cells undergoing DNA synthesis during exposure to BrdU were determined by immunohistochemical staining and considered as BrdU positive. The data represents the average of two independent experiments in which approximately 400 cells were counted per sample.

[11] = LS857, pioglitazone withdrawn 48 hours, then BrdU 48 hours

Cc1c(C)c2c(c(C)c1O)CCC(C)(COc1ccc(CC3SC(=O)NC3=O)cc1)O2 (stereo not shown) [troglitazone, 5-[[4-[(3,4-dihydro-6-hydroxy-2,5,7,8-tetramethyl-2H-1-benzopyran-2-yl)methoxy]phenyl]methyl]-2,4-thiazolidinedione]
size of adipose tumors in nude mice compared to untreated controls (HIB1B cells [1]; 14, 19 and 26 days of treatment): effective in reducing the size of adipose tumors | Tumor volume (mean (SD)) (HIB1B cells [1]; 14 days of treatment, w outlier): 403(182) mm^3 | Tumor volume (mean (SD)) (HIB1B cells [1]; 14 days of treatment, w/o outlier): 361(110) mm^3 | Tumor volume (mean (SD)) (HIB1B cells [1]; 19 days of treatment, w outlier): 990(665) mm^3 | Tumor volume (mean (SD)) (HIB1B cells [1]; 19 days of treatment, w/o outlier): 830(389) mm^3 | Tumor volume (mean (SD)) (HIB1B cells [1]; 26 days of treatment, w outlier): 2601(2270) mm^3 | Tumor volume (mean (SD)) (HIB1B cells [1]; 26 days of treatment, w/o outlier): 2032(1179) mm^3 | induction of differentiation (lipid accumulation, adipocyte morphology) [2]: Induction of differentiation was also observed

CN(CCOc1ccc(CC2SC(=O)NC2=O)cc1)c1ccccn1 (stereo not shown) [BRL49653, rosiglitiazone]
cytotoxic effects (NIH-PPARγ cells [3]): No obvious cytotoxic effects

CCc1ccc(CCOc2ccc(CC3SC(=O)NC3=O)cc2)nc1 (stereo not shown) [pioglitazone, 5-[4-[2-(5-ethyl-2-pyridyl)-ethoxy]benzyl]-2,4-thiazolidinedione]
BrdU positive % (HIB1B cells [4]; 5 μM pioglitazone for 5 days, BrdU pulse 1 hour): 11% | decrease of BrdU incorporation into newly synthesized DNA (HIB1B cells [4]; after 5 days of treatment): 85% | lipid accumulation [5]: No lipid accumulation | change of BrdU incorporation rate (NIH-vector cells [6]; NIH-vector cells, 5 days of treatment): did not change | BrdU positive % (NIH-vector cells [6]; NIH-vector, 5 μM pioglitazone for 5 days, BrdU pulse 1 hour): 43% | induction of the mRNAs encoding aP2 and adipsin (aP2 and adipsin): induction of two markers of terminal adipocyte differentiation | percent lipid-containing cells (NIH-PPARγ cells [7]): 60-70% | cells containing lipid that stain positive for BrdU ([8]; LS857, of those cells containing lipid): 2% | cells containing visible cytoplasmic lipid [8, 11]: 35% | cells stained positive for BrdU incorporation [8, 11]: 28% | decrease in the BrdU incorporation rate (3T3-F442A preadipocytes; 3T3-F442A preadipocytes, after 5 days of treatment): 80% | BrdU positive % (3T3-F442A preadipocytes; 3T3-F442A, 5 μM pioglitazone for 5 days, BrdU pulse 1 hour): 14% | percent lipid-containing cells (NIH-vector cells [9]): 0% | induction of differentiation (lipid accumulation, adipocyte morphology) [2]: readily accumulated lipid and adopted a morphology characteristic of mature cultured adipocytes | degree of morphologically recognizable differentiation (LS175 cells): 75% | degree of morphologically recognizable differentiation (LS857 cells; LS 857 cells, 10 μM, 7 days): 40% | BrdU positive % (NIH-PPARγ cells [10]): 9%

Cc1cc2c(cc1C1(c3ccc(C(=O)O)cn3)CC1)C(C)(C)CCC2(C)C [LG268]
percent lipid-containing cells (NIH-PPARγ cells [7]; NIH-PPARγ, confluent cells, 7 days, 1 μM pioglitazone, 50 nM LG268): 50-65% | stimulation of adipocyte differentiation (NIH-PPARγ cells [7]; confluent NIH-PPARγ cells, 7 days, 50 nM LG268, 1 μM pioglitazone): significant stimulation of adipocyte differentiation | adipogenic effect on NIH-vector cells (NIH-vector cells [9]; NIH-vector cells): no effect | percent lipid-containing cells (NIH-vector cells [9]): 0% | adipocyte differentiation of LS857 cells (LS857 cells; 50 nM LG268, 10 μM pioglitazone, alone or simultaneously): significant degree of adipocyte differentiation
